Data on 38 molecules can be found in patent publication US10336775B2 (Asceneuron SA, priority 2014, dated 2019).

Sequence of His-Tagged hOGA (human O-GlcNAcase) (O60502 whole entry): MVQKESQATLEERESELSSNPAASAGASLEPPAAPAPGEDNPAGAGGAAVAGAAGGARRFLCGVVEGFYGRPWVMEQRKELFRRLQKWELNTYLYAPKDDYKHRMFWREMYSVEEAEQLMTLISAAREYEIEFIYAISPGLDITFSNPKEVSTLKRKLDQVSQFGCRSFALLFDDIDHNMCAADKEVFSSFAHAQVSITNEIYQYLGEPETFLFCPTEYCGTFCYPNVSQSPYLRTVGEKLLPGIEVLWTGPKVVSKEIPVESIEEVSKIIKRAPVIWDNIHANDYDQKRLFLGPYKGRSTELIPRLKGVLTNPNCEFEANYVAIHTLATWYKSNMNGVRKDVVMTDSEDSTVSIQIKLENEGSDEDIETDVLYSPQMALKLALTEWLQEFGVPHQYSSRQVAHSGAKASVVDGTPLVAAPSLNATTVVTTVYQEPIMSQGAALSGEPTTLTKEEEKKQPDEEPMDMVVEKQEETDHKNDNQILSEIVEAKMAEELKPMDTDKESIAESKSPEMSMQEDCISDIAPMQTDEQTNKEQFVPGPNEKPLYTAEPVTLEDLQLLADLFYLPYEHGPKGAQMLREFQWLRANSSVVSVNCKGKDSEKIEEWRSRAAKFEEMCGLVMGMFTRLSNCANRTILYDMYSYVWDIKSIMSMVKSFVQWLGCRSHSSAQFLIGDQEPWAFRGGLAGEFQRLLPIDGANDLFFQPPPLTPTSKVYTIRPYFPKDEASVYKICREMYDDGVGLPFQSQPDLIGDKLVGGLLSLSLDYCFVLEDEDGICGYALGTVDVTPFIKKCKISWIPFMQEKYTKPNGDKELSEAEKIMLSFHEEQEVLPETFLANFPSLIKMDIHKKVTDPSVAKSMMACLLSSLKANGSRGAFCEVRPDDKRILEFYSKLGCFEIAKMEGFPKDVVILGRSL

One experiment addresses His-Tagged hOGA (human O-GlcNAcase) (Homo sapiens (Human), UniProt O60502). As to the kind of experiment: Human O-GlcNAcase enzyme inhibition assay (Example B01). The format is biochemical.
Details: not given
For the molecule `CC(c1ccc2c(c1)OCO2)N1CCN(c2ccc([N+](=O)[O-])cn2)CC1` (stereo not shown) [Example 55, 1-(1-(benzo[d][1,3]dioxol-5-yl)ethyl)-4-(5-nitropyridin-2-yl)piperazine], the IC50 (in general, the concentration that inhibits the measured activity by half) was 5e-08 to 2e-07 M.

The same experiment, now with this note: OGA IC50 (M), OGA enzyme inhibition assay; activity range classes defined in μM.
The molecule `CC(c1ccc2c(c1)OCO2)N1CCN(c2ncc(C(=O)N(C)C)s2)CC1` (single isomer, unassigned) [Example 61, (R)-2-(4-(1-(benzo[d][1,3]dioxol-5-yl)ethyl)piperazin-1-yl)-N,N-dimethylthiazole-5-carboxamide or (S)-2-(4-(1-(benzo[d][1,3]dioxol-5-yl)ethyl)piperazin-1-yl)-N,N-dimethylthiazole-5-carboxamide] displayed an IC50 of 5e-08 to 2e-07 M.
The same measure, in the same setting: in the case of `CC(c1ccc2c(c1)OCO2)N1CCN(c2ncc(C(=O)N(C)C)s2)CC1` (racemic) [Example 47, 2-(4-(1-(Benzo[d](1,3)dioxol-5-yl)ethyl)piperazin-1-yl)-N,N-dimethylthiazole-5-carboxamide] it was 5e-08 to 2e-07 M.
On the same count and under the same terms, in the case of `CC(=O)Nc1cnc(N2CCN(C(C)c3ccc4c(c3)OCO4)CC2)nc1` (racemic) [Example 72, N-(2-(4-(1-(benzo[d][1,3]dioxol-5-yl)ethyl)piperazin-1-yl)pyrimidin-5-yl)acetamide] it was below 5e-08 M.

Still in this experiment, the particulars now being: OGA enzyme inhibition assay; activity range classes defined in μM; read-out: OGA IC50.
`CC(c1ccc2c(c1)OCO2)N1CCN(c2ncc3cc[nH]c3n2)CC1` (racemic) [Example 113, 2-(4-(1-(benzo[d][1,3]dioxol-5-yl)ethyl)piperazin-1-yl)-7H-pyrrolo[2,3-d]pyrimidine]: the IC50 was in the range of 5e-08 to 2e-07 M.
Still for that read-out and setting: to `Cc1csc(C2CCN(C(C)c3ccc4c(c3)OCO4)CC2)n1` (racemic) [Example 1, 2-(1-(1-(Benzo[d][1,3]dioxol-5-yl)ethyl)piperidin-4-yl)-4-methylthiazole] belongs 2e-07 to 1e-06 M.
On the same count and under the same terms, in the case of `CC(=O)Nc1cnc(N2CCN(C(C)c3ccc4nsnc4c3)CC2)nc1` (racemic) [Example 122, N-(2-(4-(1-(benzo[c][1,2,5]thiadiazol-5-yl)ethyl)piperazin-1-yl)pyrimidin-5-yl)acetamide] it was below 5e-08 M; in that of `CC(c1ccc2c(c1)OCO2)N1CCN(c2ncc(C(N)=O)s2)CC1` (racemic) [Example 48, 2-(4-(1-(Benzo[d](1,3)dioxol-5-yl)ethyl)piperazin-1-yl)thiazole-5-carboxamide], below 5e-08 M.
The same measure, in the same setting: to “(2-(4-(1-(benzo[d][1,3]dioxol-5-yl)ethyl)piperazin-1-yl)thiazol-4-yl)methanamine [Example 84]” belongs 5e-08 to 2e-07 M; to `COc1cnc(N2CCN([C@@H](C)c3ccc4c(c3)OCO4)CC2)nc1` [Example 195, (S)-2-(4-(1-(benzo[d][1,3]dioxol-5-yl)ethyl)piperazin-1-yl)-5-methoxypyrimidine], below 5e-08 M; to `C[C@@H](c1ccc2c(c1)OCO2)N1CCN(c2ccc(C(C)(C)O)cn2)CC1` [Example 190, (S)-2-(6-(4-(1-(benzo[d][1,3]dioxol-5-yl)ethyl)piperazin-1-yl)pyridin-3-yl)propan-2-ol], below 5e-08 M.
For `Cc1cnn(C2CCN(C(C)c3ccc4c(c3)OCO4)CC2)c1` (racemic) [Example 3, 1-(1-(benzo[d][1,3]dioxol-5-yl)ethyl)-4-(4-methyl-1H-pyrazol-1-yl)piperidine], the IC50 is 1e-06 to 1e-05 M.
Same read-out and setting: to `COc1cnc(N2CCN(C(C)c3ccc4nccnc4c3)CC2)nc1` (racemic) [Example 196] belongs 5e-08 to 2e-07 M; to `CNC(=O)c1cnc(N2CCN([C@@H](C)c3ccc4c(c3)OCO4)CC2)nc1` [Example 134, (S) 2-(4-(1-(benzo[d][1,3]dioxol-5-yl)ethyl)piperazin-1-yl)-N-methylpyrimidine-5-carboxamide], below 5e-08 M.
Same read-out and setting: in the case of `CC(c1ccc2c(c1)OCO2)N1CCN(c2cc(Cl)ncn2)CC1` (racemic) [Example 24, 4-(4-(1-(Benzo[d][1,3]dioxol-5-yl)ethyl)piperazin-1-yl)-6-chloropyrimidine] it was 5e-08 to 2e-07 M; in that of `CC(=O)Nc1nnc(N2CCN(C(C)c3ccc4c(c3)OC(F)(F)O4)CC2)s1` (racemic) [Example 117], 2e-07 to 1e-06 M; in that of `CC(=O)Nc1nnc(N2CCN(C(C)c3ccc(F)c(F)c3)CC2)s1` (racemic) [Example 76, N-(5-(4-(1-(3,4-difluorophenyl)ethyl)piperazin-1-yl)-1,3,4-thiadiazol-2-yl)acetamide], 1e-06 to 1e-05 M.
On the same count and under the same terms, in the case of `CC(c1ccc2c(c1)CCO2)N1CCN(c2ncccn2)CC1` (racemic) [Example 53, 2-(4-(1-(2,3-dihydrobenzofuran-5-yl)ethyl)piperazin-1-yl)pyrimidine] it was 2e-07 to 1e-06 M; in that of `CC(=O)Nc1cnc(N2CCN(C(C)c3ccc4nonc4c3)CC2)nc1` (racemic) [Example 121, N-(2-(4-(1-(benzo[c][1,2,5]oxadiazol-5-yl)ethyl)piperazin-1-yl)pyrimidin-5-yl)acetamide], 1e-06 to 1e-05 M.
For the molecule `CSc1ccc(N2CCN([C@@H](C)c3ccc4c(c3)OCO4)CC2)nc1` [Example 192, (S)-1-(1-(benzo[d][1,3]dioxol-5-yl)ethyl)-4-(5-(methylthio)pyridin-2-yl)piperazine], the IC50 is below 5e-08 M.
Same read-out and setting: to `CC(c1ccc2c(c1)OCO2)N1CCN(c2nc3c(s2)C(=O)NCC3)CC1` (racemic) [Example 148, 2-(4-(1-(benzo[d][1,3]dioxol-5-yl)ethyl)piperazin-1-yl)-6,7-dihydrothiazolo[5,4-c]pyridin-4(5H)-one] belongs 5e-08 to 2e-07 M; to `CC(C)NC(=O)c1cnc(N2CCN(C(C)c3ccc4c(c3)OCO4)CC2)s1` (racemic) [Example 43, 2-(4-(1-(Benzo[d][1,3]dioxol-5-yl)ethyl)piperazin-1-yl)-N-isopropylthiazole-5-carboxamide], 5e-08 to 2e-07 M.
On the same count and under the same terms, to `CC(=O)Nc1cnc(N2CCN(C(C)c3ccc4scnc4c3)CC2)nc1` (racemic) [Example 116, N-(2-(4-(1-(benzo[d]thiazol-5-yl)ethyl)piperazin-1-yl)pyrimidin-5-yl)acetamide] belongs below 5e-08 M; to `CC(=O)Nc1cnc(N2CCN(C(C)c3ccc4sc(C)nc4c3)CC2)nc1` (racemic) [Example 169, N-(2-(4-(1-(2-methylbenzo[d]thiazol-5-yl)ethyl)piperazin-1-yl)pyrimidin-5-yl)acetamide], below 5e-08 M; to `CC(c1ccc2c(c1)OCO2)N1CCN(c2ncc(C(=O)N3CCOCC3)s2)CC1` (racemic) [Example 67, (2-(4-(1-(Benzo[d][1,3]dioxol-5-yl)ethyl)piperazin-1-yl)thiazol-5-yl)(morpholino)methanone], 5e-08 to 2e-07 M.
On the same count and under the same terms, to `CC(=O)Nc1nnc(N2CCN(C(C)c3ccc4c(Cl)ccnc4c3)CC2)s1` (racemic) [Example 100, N-(5-(4-(1-(4-chloroquinolin-7-yl)ethyl)piperazin-1-yl)-1,3,4-thiadiazol-2-yl)acetamide] belongs 2e-07 to 1e-06 M; to `Cc1cccc(N2CCN(C(C)c3ccc4c(c3)OCO4)CC2)n1` (racemic) [Example 21, 1-(1-(Benzo[d][1,3]dioxol-5-yl)ethyl)-4-(6-methylpyridin-2-yl)piperazine], 2e-07 to 1e-06 M; to `C[C@@H](c1ccc2c(c1)OCO2)N1CCN(c2nnc(N)s2)CC1` [Example 132, (S)-5-(4-(1-(benzo[d][1,3]dioxol-5-yl)ethyl)piperazin-1-yl)-1,3,4-thiadiazol-2-amine], below 5e-08 M.
Take `CC(c1ccc2c(c1)OCO2)N1CCN(c2nccc(N)n2)CC1` (racemic) [Example 22, 2-(4-(1-(Benzo[d][1,3]dioxol-5-yl)ethyl)piperazin-1-yl)pyrimidin-4-amine]: the IC50 fell in the range of 5e-08 to 2e-07 M.
Same read-out and setting: in the case of `CC(O)c1cnc(N2CCN([C@@H](C)c3ccc4c(c3)OCO4)CC2)nc1` (single isomer, unassigned) [Example 197] it was below 5e-08 M; in that of `CCc1csc(N2CCN(C(C)c3ccc4c(c3)OCO4)CC2)n1` (racemic) [Example 19, 2-(4-(1-(Benzo[d][1,3]dioxol-5-yl)ethyl)piperazin-1-yl)-4-ethylthiazole], 2e-07 to 1e-06 M.
`CCNc1nnc(N2CCN(C(C)c3ccc4c(c3)OCO4)CC2)s1` (racemic) [Example 112, 5-(4-(1-(benzo[d][1,3]dioxol-5-yl)ethyl)piperazin-1-yl)-N-ethyl-1,3,4-thiadiazol-2-amine]: the IC50 lay in the range of 5e-08 to 2e-07 M.
Still for that read-out and setting: in the case of `C[C@@H](c1ccc2c(c1)OCO2)N1CCN(c2nc3cnccc3s2)CC1` [Example 139, (S)-2-(4-(1-(benzo[d][1,3]dioxol-5-yl)ethyl)piperazin-1-yl)thiazolo[4,5-c]pyridine] it was 5e-08 to 2e-07 M; in that of `CC(c1ccc2c(c1)OCO2)N1CCN(c2nccs2)CC1` (racemic) [Example 7, 2-(4-(1-(Benzo[d][1,3]dioxol-5-yl)ethyl)piperazin-1-yl)thiazole], 2e-07 to 1e-06 M.
Same read-out and setting: to `CC(c1ccc2nccnc2c1)N1CCN(c2nc3c(s2)C(=O)NCC3)CC1` (racemic) [Example 178, 2-(4-(1-(quinoxalin-6-yl)ethyl)piperazin-1-yl)-6,7-dihydrothiazolo[5,4-c]pyridin-4(5H)-one] belongs 2e-07 to 1e-06 M; to `COc1nc(N2CCN(C(C)c3ccc4c(c3)OCCO4)CC2)ccc1Br` (racemic) [Example 199], 5e-08 to 2e-07 M; to `CC(=O)N1CCc2nc(N3CCN([C@@H](C)c4ccc5c(c4)OCO5)CC3)sc2C1` [Example 184, (S)-1-(2-(4-(1-(benzo[d][1,3]dioxol-5-yl)ethyl)piperazin-1-yl)-6,7-dihydrothiazolo[5,4-c]pyridin-5(4H)-yl)ethan-1-one], below 5e-08 M.

Still in this experiment, the particulars now being: measured according to Example B01.
Take `CC(c1ccc2c(c1)OCO2)N1CCN(c2ncc(C(N)=O)s2)CC1` (racemic) [Example 48, 2-(4-(1-(Benzo[d](1,3)dioxol-5-yl)ethyl)piperazin-1-yl)thiazole-5-carboxamide]: the “OGA inhibitor activity (in words)” value was “very potent OGA inhibitors”.
The same measure, in the same setting: in the case of `CNC(=O)c1cnc(N2CCN([C@@H](C)c3ccc4c(c3)OCO4)CC2)nc1` [Example 134, (S) 2-(4-(1-(benzo[d][1,3]dioxol-5-yl)ethyl)piperazin-1-yl)-N-methylpyrimidine-5-carboxamide] it was “very potent OGA inhibitors”.
Still for that read-out and setting: in the case of `CC(=O)Nc1cnc(N2CCN(C(C)c3ccc4scnc4c3)CC2)nc1` (racemic) [Example 116, N-(2-(4-(1-(benzo[d]thiazol-5-yl)ethyl)piperazin-1-yl)pyrimidin-5-yl)acetamide] it was “very potent OGA inhibitors”; in that of `C[C@@H](c1ccc2c(c1)OCO2)N1CCN(c2nnc(N)s2)CC1` [Example 132, (S)-5-(4-(1-(benzo[d][1,3]dioxol-5-yl)ethyl)piperazin-1-yl)-1,3,4-thiadiazol-2-amine], “very potent OGA inhibitors”.
The same measure, in the same setting: in the case of `CC(=O)Nc1cnc(N2CCN(C(C)c3ccc4c(c3)OCO4)CC2)nc1` (racemic) [Example 72, N-(2-(4-(1-(benzo[d][1,3]dioxol-5-yl)ethyl)piperazin-1-yl)pyrimidin-5-yl)acetamide] it was “very potent OGA inhibitors”.

The same experiment, now with this note: read-out: OGA IC50.
Turning to `c1cnc(N2CCN(Cc3ccc4c(c3)OCO4)CC2)nc1` [U.S. Pat. No. 3,299,067 (Example 1), reference compound], the IC50 worked out at 9.98e-07 M.
